The test relates to P388. Briefly: Tested for inhibitory activity against p-388 lymphocytic leukemia cells. The test is classed as functional, cell-based. The settings on record: Mus musculus.

Structures are written as SMILES. Converted amounts (≈) assume the structure as drawn. Residues, ends and D or L forms follow the SMILES beside them.

For `CC(C)C[C@@H]1NC(=O)[C@H](Cc2ccccc2)NC(=O)[C@H]([C@@H](C)O)NC(=O)CNC(=O)[C@H](C(C)C)NC(=O)[C@H](Cc2ccc(O)cc2)NC1=O` (HELM PEPTIDE1{F.L.Y.V.G.T}$PEPTIDE1,PEPTIDE1,1:R1-6:R2$$$V2.0), inhibition was half-maximal at 2.5 mg/L (≈ 3.67 µM) (IC50).

The values are drawn from ChEMBL document CHEMBL1128044, “Dichotomin A, a new cyclic hexapeptide from Stellaria dichotoma L. var. lanceolata Bge” (Bioorg Med Chem Lett, 1995).
